Tests used:
Format in all cases: cell-based
Staphylococcus aureus = test: Antibiotic susceptibility testing (colour of media), spiked milk; settings: bacteria sample 5c
Procedure: Tables 36 to 38 which follow show further examples of antibiotic susceptibility testing performed in accordance with the present invention. Table 36, antibiotic susceptibility testing of Staphylococcus aureus in Mueller Hinton and Tryptic Soy Broth at pre-incubation and at between 15-24 h. Tables 37 and 38, antimicrobial susceptibility testing of Streptococcus uberis and E. coli with the addition of gram negative specific antibiotic aztreonam. Tables 38 to 49 show further examples of antibiotic susceptibility testing and the outcomes are aligned with the described inventions.

Streptococcus uberis [1] = test: Colour change of enrichment media with pH indicator, bacteria in milk (stabilizing agent); settings: excess concentration (Table 4e, 0.04%) in presence of milk; all inoculums investigated
From the text: The present invention overcomes these limitations through inclusion of one or more stabilizing agents which suppresses the potential inhibitory effect of the colour based pH indicator. As such, increased concentrations of the colour based pH indicator (e.g. phenol red) may be used in the test, thereby achieving stability in the colour change associated with bacteria growth. An example of a stabilizing agent according to the present invention is milk.
In this Example, liquid culture media is used which allows early and easy identification of susceptible antimicrobials to support decision of antimicrobial selection to treat bacterial infections. It also allows the detection of bacteria such as gram+ and/or gram-bacteria in clinical samples are present and/or allows estimation of the inoculum from kinetic analyses of colour change. The base of this liquid culture medium is a general purpose liquid enrichment medium for example tryptic soy broth (Soybean-Casein Digest Medium) but could also be Mueller Hinton broth. This TSB media has excess concentration of a pH indicator such as phenol red and/or bromocresol purple and milk. […] Colorimetric analyses can performed by the naked eye or by an optical reader for example via CCD camera chip or photo diode. […]

Streptococcus uberis [2] = test: Group D Streptococci identification, esculin/ferric citrate in TSB (blackening = growth), bacteria in milk; settings: TSB containing 0.5% esculin and 0.25% ferric citrate + 80 uL spiked milk; 100 ug/ml aztreonam and/or 0.5 mg/mL phenol red
Procedure: By way of illustration, the same experiment was conducted as above, only this time using clinical milk samples obtained from a bovine animal suspect of being infected with mastitis.
However, Applicant has discovered that increased amounts of esculin and ferric citrate may be used in milk derived clinical samples. For example, at concentrations of at least 2% esculin and 1% ferric citrate, the growth of Streptococcus uberis is not inhibited.
Note, in the experiments above, the clinical sample tested was milk obtained from a bovine animal suspected of being infected by mastitis. If a non-milk clinical sample were to be tested, then inclusion of a stabilizing agent (e.g. milk in the form of a liquid or powder) would be required in order to suppress the growth inhibitory effect of esculin and ferric citrate at the higher concentrations used according to this invention.
Applicant further discovered that TSB containing 0.5% esculin and 0.25% ferric citrate and 80 uL of spiked Streptococcus uberis milk sample which also contained 100 ug/ml aztreonam concentration (antibiotic which has activity against many gram-bacteria such as E. coli) and/or in combination with 0.5 mg/mL phenol red led to easy detectable colour changes. No inhibition of Streptococcus uberis due to phenol red or aztreonam was detected.

[3] = T = 0 hours (pre incubation), drug 0.01 μg/ml, Mueller Hinton (70 ul composition 26)
[4] = T = 0 hours (pre incubation), drug 0.05 μg/ml, Mueller Hinton (70 ul composition 26)
[5] = T = 0 hours (pre incubation), drug 0.1 μg/ml, Mueller Hinton (70 ul composition 26)
[6] = T = 0 hours (pre incubation), drug 0.5 μg/ml, Mueller Hinton (70 ul composition 26)
[7] = T = 0 hours (pre incubation), drug 1 μg/ml, Mueller Hinton (70 ul composition 26)
[8] = T = 0 hours (pre incubation), drug 5 μg/ml, Mueller Hinton (70 ul composition 26)
[9] = T = 0 hours (pre incubation), drug 10 μg/ml, Mueller Hinton (70 ul composition 26)
[10] = T = 0 hours (pre incubation), drug 50 μg/ml, Mueller Hinton (70 ul composition 26)
[11] = T = 0 hours (pre incubation), drug 100 μg/ml, Mueller Hinton (70 ul composition 26)
[12] = T = 0 hours (pre incubation), drug 500 μg/ml, Mueller Hinton (70 ul composition 26)
[13] = T = 15-24 h at 35° C., drug 0.01 μg/ml, Mueller Hinton (70 ul composition 26)
[14] = T = 15-24 h at 35° C., drug 0.05 μg/ml, Mueller Hinton (70 ul composition 26)
[15] = T = 15-24 h at 35° C., drug 0.1 μg/ml, Mueller Hinton (70 ul composition 26)
[16] = T = 15-24 h at 35° C., drug 0.5 μg/ml, Mueller Hinton (70 ul composition 26)
[17] = T = 15-24 h at 35° C., drug 1 μg/ml, Mueller Hinton (70 ul composition 26)
[18] = T = 15-24 h at 35° C., drug 5 μg/ml, Mueller Hinton (70 ul composition 26)
[19] = T = 15-24 h at 35° C., drug 10 μg/ml, Mueller Hinton (70 ul composition 26)
[20] = T = 15-24 h at 35° C., drug 50 μg/ml, Mueller Hinton (70 ul composition 26)
[21] = T = 15-24 h at 35° C., drug 100 μg/ml, Mueller Hinton (70 ul composition 26)
[22] = T = 15-24 h at 35° C., drug 500 μg/ml, Mueller Hinton (70 ul composition 26)

Q: How did the Colour of media (Staphylococcus aureus; T = 0 hours (pre incubation), drug 0.01 μg/ml, Tryptic Soy (70 ul composition 2c)) turn out when `CN[C@@H]1[C@H](O[C@H]2[C@H](O[C@H]3[C@H](O)[C@@H](O)[C@H](NC(=N)N)[C@@H](O)[C@@H]3NC(=N)N)O[C@@H](C)[C@]2(O)CO)O[C@@H](CO)[C@H](O)[C@H]1O` [Dihydrostreptomycin] was run?
A: Its Colour of media is “red”.

Q: And the Colour of media (Staphylococcus aureus; T = 0 hours (pre incubation), drug 0.05 μg/ml, Tryptic Soy (70 ul composition 2c))?
A: Its Colour of media is “red”.

Q: What about the Colour of media (Staphylococcus aureus; T = 0 hours (pre incubation), drug 0.1 μg/ml, Tryptic Soy (70 ul composition 2c)) of the same compound?
A: The Colour of media was “red”.

Q: And the Colour of media (Staphylococcus aureus; T = 0 hours (pre incubation), drug 0.5 μg/ml, Tryptic Soy (70 ul composition 2c))?
A: Its Colour of media is “red”.

Q: And the Colour of media (Staphylococcus aureus; T = 0 hours (pre incubation), drug 1 μg/ml, Tryptic Soy (70 ul composition 2c))?
A: The Colour of media was “red”.

Q: And the Colour of media (Staphylococcus aureus; T = 0 hours (pre incubation), drug 5 μg/ml, Tryptic Soy (70 ul composition 2c))?
A: Its Colour of media is “red”.

Q: And the Colour of media (Staphylococcus aureus; T = 0 hours (pre incubation), drug 10 μg/ml, Tryptic Soy (70 ul composition 2c))?
A: Its Colour of media is “red”.

Q: And the Colour of media (Staphylococcus aureus; T = 0 hours (pre incubation), drug 50 μg/ml, Tryptic Soy (70 ul composition 2c))?
A: The Colour of media was “red”.

Q: And the Colour of media (Staphylococcus aureus; T = 0 hours (pre incubation), drug 100 μg/ml, Tryptic Soy (70 ul composition 2c))?
A: Its Colour of media is “red”.

Q: What about the Colour of media (Staphylococcus aureus; T = 0 hours (pre incubation), drug 500 μg/ml, Tryptic Soy (70 ul composition 2c)) of the same compound?
A: Its Colour of media is “red”.

Q: And the Colour of media (Staphylococcus aureus; T = 15-24 h at 35° C., drug 0.01 μg/ml, Tryptic Soy (70 ul composition 2c))?
A: The Colour of media was “yellow”.

Q: What about the Colour of media (Staphylococcus aureus; T = 15-24 h at 35° C., drug 0.05 μg/ml, Tryptic Soy (70 ul composition 2c)) of the same compound?
A: Its Colour of media is “yellow”.

Q: And the Colour of media (Staphylococcus aureus; T = 15-24 h at 35° C., drug 0.1 μg/ml, Tryptic Soy (70 ul composition 2c))?
A: The Colour of media was “yellow”.

Q: What about the Colour of media (Staphylococcus aureus; T = 15-24 h at 35° C., drug 0.5 μg/ml, Tryptic Soy (70 ul composition 2c)) of the same compound?
A: The Colour of media was “yellow”.

Q: What about the Colour of media (Staphylococcus aureus; T = 15-24 h at 35° C., drug 1 μg/ml, Tryptic Soy (70 ul composition 2c)) of the same compound?
A: Its Colour of media is “yellow”.

Q: What about the Colour of media (Staphylococcus aureus; T = 15-24 h at 35° C., drug 5 μg/ml, Tryptic Soy (70 ul composition 2c)) of the same compound?
A: The Colour of media was “yellow”.

Q: What about the Colour of media (Staphylococcus aureus; T = 15-24 h at 35° C., drug 10 μg/ml, Tryptic Soy (70 ul composition 2c)) of the same compound?
A: Its Colour of media is “yellow”.

Q: And the Colour of media (Staphylococcus aureus; T = 15-24 h at 35° C., drug 50 μg/ml, Tryptic Soy (70 ul composition 2c))?
A: Its Colour of media is “yellow”.

Q: And the Colour of media (Staphylococcus aureus; T = 15-24 h at 35° C., drug 100 μg/ml, Tryptic Soy (70 ul composition 2c))?
A: The Colour of media was “red”.

Q: And the Colour of media (Staphylococcus aureus; T = 15-24 h at 35° C., drug 500 μg/ml, Tryptic Soy (70 ul composition 2c))?
A: Its Colour of media is “red”.

Q: How did the Growth inhibition (Streptococcus uberis [1]) turn out when `Cc1cc(C2(c3cc(C)c(O)c(Br)c3)OS(=O)(=O)c3ccccc32)cc(Br)c1O` [bromocresol purple] was run?
A: The Growth inhibition was “does not inhibit growth”.

Q: How did the Colour of media (Staphylococcus aureus; [3]) turn out when `NC[C@@H]1O[C@H](O[C@H]2[C@@H](O)[C@H](O[C@@H]3[C@@H](O)[C@H](N)C[C@H](N)[C@H]3O[C@H]3O[C@H](CN)[C@@H](O)[C@H](O)[C@H]3N)O[C@@H]2CO)[C@H](N)[C@@H](O)[C@@H]1O` [Neomycin] was run?
A: Its Colour of media is “red”.

Q: And the Colour of media (Staphylococcus aureus; [4])?
A: Its Colour of media is “red”.

Q: And the Colour of media (Staphylococcus aureus; [5])?
A: Its Colour of media is “red”.

Q: And the Colour of media (Staphylococcus aureus; [6])?
A: The Colour of media was “red”.

Q: What about the Colour of media (Staphylococcus aureus; [7]) of the same compound?
A: The Colour of media was “red”.

Q: What about the Colour of media (Staphylococcus aureus; [8]) of the same compound?
A: The Colour of media was “red”.

Q: And the Colour of media (Staphylococcus aureus; [9])?
A: Its Colour of media is “red”.

Q: And the Colour of media (Staphylococcus aureus; [10])?
A: The Colour of media was “red”.

Q: And the Colour of media (Staphylococcus aureus; [11])?
A: Its Colour of media is “red”.

Q: And the Colour of media (Staphylococcus aureus; [12])?
A: The Colour of media was “red”.

Q: And the Colour of media (Staphylococcus aureus; [13])?
A: Its Colour of media is “yellow”.

Q: What about the Colour of media (Staphylococcus aureus; [14]) of the same compound?
A: Its Colour of media is “yellow”.

Q: What about the Colour of media (Staphylococcus aureus; [15]) of the same compound?
A: The Colour of media was “yellow”.

Q: And the Colour of media (Staphylococcus aureus; [16])?
A: Its Colour of media is “yellow”.

Q: And the Colour of media (Staphylococcus aureus; [17])?
A: The Colour of media was “yellow”.

Q: What about the Colour of media (Staphylococcus aureus; [18]) of the same compound?
A: The Colour of media was “red”.

Q: What about the Colour of media (Staphylococcus aureus; [19]) of the same compound?
A: Its Colour of media is “red”.

Q: And the Colour of media (Staphylococcus aureus; [20])?
A: Its Colour of media is “red”.

Q: And the Colour of media (Staphylococcus aureus; [21])?
A: Its Colour of media is “red”.

Q: What about the Colour of media (Staphylococcus aureus; [22]) of the same compound?
A: The Colour of media was “red”.

Q: Which Colour of media (Staphylococcus aureus; [3]) does the source give for `CC1=C(C(=O)O)N2C(=O)[C@@H](NC(=O)[C@H](N)c3ccccc3)[C@H]2SC1` [Cephalexin] here?
A: Its Colour of media is “red”.

Q: And the Colour of media (Staphylococcus aureus; [4])?
A: The Colour of media was “red”.

Q: And the Colour of media (Staphylococcus aureus; [5])?
A: Its Colour of media is “red”.

Q: And the Colour of media (Staphylococcus aureus; [6])?
A: The Colour of media was “red”.

Q: And the Colour of media (Staphylococcus aureus; [7])?
A: The Colour of media was “red”.

Q: And the Colour of media (Staphylococcus aureus; [8])?
A: The Colour of media was “red”.

Q: What about the Colour of media (Staphylococcus aureus; [9]) of the same compound?
A: Its Colour of media is “red”.

Q: And the Colour of media (Staphylococcus aureus; [10])?
A: The Colour of media was “red”.

Q: What about the Colour of media (Staphylococcus aureus; [11]) of the same compound?
A: Its Colour of media is “red”.

Q: What about the Colour of media (Staphylococcus aureus; [12]) of the same compound?
A: Its Colour of media is “red”.

Q: What about the Colour of media (Staphylococcus aureus; [13]) of the same compound?
A: The Colour of media was “yellow”.

Q: What about the Colour of media (Staphylococcus aureus; [14]) of the same compound?
A: Its Colour of media is “yellow”.

Q: And the Colour of media (Staphylococcus aureus; [15])?
A: Its Colour of media is “yellow”.

Q: And the Colour of media (Staphylococcus aureus; [16])?
A: Its Colour of media is “yellow”.

Q: What about the Colour of media (Staphylococcus aureus; [17]) of the same compound?
A: Its Colour of media is “red”.

Q: And the Colour of media (Staphylococcus aureus; [18])?
A: The Colour of media was “red”.

Q: And the Colour of media (Staphylococcus aureus; [19])?
A: The Colour of media was “red”.

Q: And the Colour of media (Staphylococcus aureus; [20])?
A: Its Colour of media is “red”.

Q: And the Colour of media (Staphylococcus aureus; [21])?
A: The Colour of media was “red”.

Q: What about the Colour of media (Staphylococcus aureus; [22]) of the same compound?
A: Its Colour of media is “red”.

Q: How did the “Inhibition of Streptococcus uberis” value (Streptococcus uberis [2]) turn out when `O=S1(=O)OC(c2ccc(O)cc2)(c2ccc(O)cc2)c2ccccc21` [phenol red] was run?
A: Its value is “No inhibition”.

Reference: patent US10829796B2, “Bacteria identification and antimicrobial susceptibility test” (priority 2015, dated 2020)
